Assay results taken from ChEMBL document CHEMBL1156250, “Novel three-component domino reactions of ketones, isatin and amino acids: synthesis and discovery of antimycobacterial activity of highly functionalised novel dispiropyrrolidines” (2010).
In brackets after ≈: the same amount, converted by molar mass.

Columns and labels:
Format in all cases: functional
[1] = test system: Mycobacterium tuberculosis; assay: Antimycobacterial activity against Mycobacterium tuberculosis H37Rv by agar dilution method
[2] = test system: Mycobacterium tuberculosis; assay: Ratio of compound MIC over pyrazinamide MIC for Mycobacterium tuberculosis H37Rv
[3] = test system: Mycobacterium tuberculosis; assay: Ratio of compound MIC over ethambutol MIC for Mycobacterium tuberculosis H37Rv

| Structure (SMILES) | MIC [1] | further results |
| --- | --- | --- |
| O=C1Nc2ccc(Br)cc2C12C1CCCN1C1(C(=O)Nc3ccc(Br)cc31)C1CCCN12 (stereo not drawn) | 5.61 µM (≈ 3.13 µg/mL) | – |
| CC(C)c1cccc2c1NC(=O)C21NC(c2ccccc2)C(c2ccccc2)C12CN(C)CCC2=O (stereo not drawn) | 26.1 µM (≈ 12.5 µg/mL) | – |
| Cc1ccc2c(c1)C1(NC(c3ccccc3)C(c3ccccc3)C13CCCCC3=O)C(=O)N2 (stereo not drawn) | 115 µM (≈ 50 µg/mL) | – |
| CN1CCC(=O)C2(C1)C(c1ccccc1)C(c1ccccc1)NC21C(=O)Nc2ccc(Br)cc21 (stereo not drawn) | 6.06 µM (≈ 3.13 µg/mL) | – |
| CC(C)c1cccc2c1NC(=O)C21NC(c2ccccc2)C(c2ccccc2)C12CCCC2=O (stereo not drawn) | 27.7 µM (≈ 12.5 µg/mL) | – |
| CC(C)c1cccc2c1NC(=O)C21NC(c2ccccc2)C(c2ccccc2)C12CCCCC2=O (stereo not drawn) | 13.4 µM (≈ 6.25 µg/mL) | – |
| CN1CCC(=O)C2(CCN(C)C23C(=O)Nc2ccc(Cl)cc23)C1 (stereo not drawn) | 37.5 µM (≈ 12.5 µg/mL) | – |
| CN1CCC2(CN(N=O)CCC2=O)C12C(=O)Nc1ccc(Cl)cc12 (stereo not drawn) | 4.47 µM (≈ 1.56 µg/mL) | – |
| CN1CCC2(CCCC2=O)C12C(=O)Nc1ccc(Br)cc12 (stereo not drawn) | 8.96 µM (≈ 3.13 µg/mL) | – |
| CN1CCC2(CCCCC2=O)C12C(=O)Nc1ccc(Br)cc12 (stereo not drawn) | 4.29 µM (≈ 1.56 µg/mL) | – |
| Cc1ccc2c(c1)C1(NC(c3ccccc3)C(c3ccccc3)C13CN(C)CCC3=O)C(=O)N2 (stereo not drawn) | 55.4 µM (≈ 25 µg/mL) | – |
| CN1CCC2(CCCCC2=O)C12C(=O)Nc1ccc(Cl)cc12 (stereo not drawn) | 39.2 µM (≈ 12.5 µg/mL) | – |
| CN1CCC2(CCCCCC2=O)C12C(=O)Nc1ccc(Cl)cc12 (stereo not drawn) | 18.8 µM (≈ 6.25 µg/mL) | – |
| CC(C)c1cccc2c1NC(=O)C21N(C)CCC12CCCCC2=O (stereo not drawn) | 38.3 µM (≈ 12.5 µg/mL) | – |
| CC(C)c1cccc2c1NC(=O)C21N(C)CCC12CCCC2=O (stereo not drawn) | 160 µM (≈ 50 µg/mL) | – |
| CN1CCC2(CCCCCC2=O)C12C(=O)Nc1ccc(Br)cc12 (stereo not drawn) | 4.13 µM (≈ 1.56 µg/mL) | – |
| CN1CCC(=O)C2(CCN(C)C23C(=O)Nc2ccc(Br)cc23)C1 (stereo not drawn) | 33 µM (≈ 12.5 µg/mL) | – |
| Cc1ccc2c(c1)C1(NC(c3ccccc3)C(c3ccccc3)C13CN(c1ccccc1)CCC3=O)C(=O)N2 (stereo not drawn) | 23.7 µM (≈ 12.2 µg/mL) | – |
| O=C1Nc2ccc(Br)cc2C12NC(c1ccccc1)C(c1ccccc1)C21CN(c2ccccc2)CCC1=O (stereo not drawn) | 10.6 µM (≈ 6.1 µg/mL) | – |
| O=C1Nc2ccc(Cl)cc2C12NC(c1ccccc1)C(c1ccccc1)C21CCCCC1=O (stereo not drawn) | 13.7 µM (≈ 6.25 µg/mL) | – |
| CN1CCC(=O)C2(C1)C(c1ccccc1)C(c1ccccc1)NC21C(=O)Nc2ccc(Cl)cc21 (stereo not drawn) | 26.5 µM (≈ 12.5 µg/mL) | – |

| Structure (SMILES) | MIC [1] | further results |
| --- | --- | --- |
| CC(C)c1cccc2c1NC(=O)C21N(C)CCC12CN(C)CCC2=O (stereo not drawn) | 36.6 µM (≈ 12.5 µg/mL) | – |
| CC(C)c1cccc2c1NC(=O)C21N(C)CCC12CN(N=O)CCC2=O (stereo not drawn) | 8.78 µM (≈ 3.13 µg/mL) | – |
| Cc1ccc2c(c1)C1(C(=O)N2)N(C)CCC12CCCCC2=O (stereo not drawn) | 41.9 µM (≈ 12.5 µg/mL) | – |
| O=C1Nc2ccccc2C12C1CCCN1C1(C(=O)Nc3ccccc31)C1CCCN12 (stereo not drawn) | 125 µM (≈ 50 µg/mL) | – |
| Cc1ccc2c(c1)C1(C(=O)N2)C2CCCN2C2(C(=O)Nc3ccc(C)cc32)C2CCCN21 (stereo not drawn) | 29.2 µM (≈ 12.5 µg/mL) | – |
| O=C1Nc2ccc(Cl)cc2C12NC(c1ccccc1)C(c1ccccc1)C21CN(c2ccccc2)CCC1=O (stereo not drawn) | 22.8 µM (≈ 12.2 µg/mL) | – |
| O=C1Nc2ccc(Br)cc2C12NC(c1ccccc1)C(c1ccccc1)C21CCCCC1=O (stereo not drawn) | 6.24 µM (≈ 3.13 µg/mL) | – |
| CN1CCC2(CN(N=O)CCC2=O)C12C(=O)Nc1ccc(Br)cc12 (stereo not drawn) | 1.98 µM (≈ 0.779 µg/mL) | Ratio [2]: 25.64; Ratio [3]: 3.86 |
| CC(C)c1cccc2c1NC(=O)C21N(C)CCC12CCCCCC2=O (stereo not drawn) | 73.4 µM (≈ 25 µg/mL) | – |
| Cc1ccc2c(c1)C1(C(=O)N2)N(C)CCC12CCCCCC2=O (stereo not drawn) | 40 µM (≈ 12.5 µg/mL) | – |
| Cc1ccc2c(c1)C1(C(=O)N2)N(C)CCC12CN(C)CCC2=O (stereo not drawn) | 19.9 µM (≈ 6.25 µg/mL) | – |
| CC(C)c1cccc2c1NC(=O)C21NC(c2ccccc2)C(c2ccccc2)C12CN(c1ccccc1)CCC2=O (stereo not drawn) | 22.5 µM (≈ 12.2 µg/mL) | – |
| Cc1ccc2c(c1)C1(C(=O)N2)N(C)CCC12CN(N=O)CCC2=O (stereo not drawn) | 4.75 µM (≈ 1.56 µg/mL) | – |
| CN1CCC2(CCCC2=O)C12C(=O)Nc1ccc(Cl)cc12 (stereo not drawn) | 41 µM (≈ 12.5 µg/mL) | – |
| O=C1Nc2ccc(Cl)cc2C12C1CCCN1C1(C(=O)Nc3ccc(Cl)cc31)C1CCCN12 (stereo not drawn) | 26.6 µM (≈ 12.5 µg/mL) | – |
| O=C1Nc2ccccc2C12NC(c1ccccc1)C(c1ccccc1)C21CCCC1=O (stereo not drawn) | 61.2 µM (≈ 25 µg/mL) | – |
| O=C1Nc2ccccc2C12NC(c1ccccc1)C(c1ccccc1)C21CCCCC1=O (stereo not drawn) | 118 µM (≈ 50 µg/mL) | – |
| CC[C@@H](CO)NCCN[C@@H](CC)CO [ETHAMBUTOL] | 7.64 µM (≈ 1.56 µg/mL) | – |
| NNC(=O)c1ccncc1 [ISONIAZID] | 0.36 µM (≈ 0.0494 µg/mL) | – |
| NC(=O)c1cnccn1 [PYRAZINAMIDE] | 50.8 µM (≈ 6.25 µg/mL) | – |
